{
  "source": "ChEMBL document CHEMBL3808282",
  "about": "“Gram Scale Syntheses of (-)-Incarvillateine and Its Analogs. Discovery of Potent Analgesics for Neuropathic Pain” (2016)",
  "key": {"[1]": {"tested_on": "Mus musculus", "experiment": "Antinociceptive effect in Kunming mouse assessed as inhibition of acetic acid-induced writhing response at 20 mg/kg, sc administered 30 mins prior to acetic acid challenge measured 5 mins post injection for 15 mins", "format": "functional"}, "[2]": {"tested_on": "Mus musculus", "experiment": "Antinociceptive effect in Kunming mouse assessed as inhibition of acetic acid-induced writhing response at 20 mg/kg, ip administered 30 mins prior to acetic acid challenge measured 5 mins post injection for 15 mins", "format": "functional"}, "[3]": {"tested_on": "Mus musculus", "experiment": "Antinociceptive activity in ICR mouse assessed as reduction in licking and biting time during second phase at 10 mg/kg, ip administered 10 mins prior to formalin challenge measured for 10 to 30 mins (reference value: 178 +/- 19 s)", "format": "functional"}, "[4]": {"tested_on": "Mus musculus", "experiment": "Antinociceptive effect in C57BL/6 mouse assessed as inhibition of spared nerve injury-induced neuropathic pain response at 10 to 40 mg/kg, ip measured after 5 to 7 days of recovery by Von Frey filament assay", "format": "functional, organism-based"}, "[5]": {"tested_on": "Mus musculus", "experiment": "Antinociceptive effect in C57BL/6 mouse assessed as inhibition of spared nerve injury-induced neuropathic pain response at 100 mg/kg, ip measured after 5 to 7 days of recovery by Von Frey filament assay", "format": "functional, organism-based"}, "[6]": {"tested_on": "Mus musculus", "experiment": "Antinociceptive activity in ICR mouse assessed as reduction in licking and biting time during second phase at 10 mg/kg, ip administered 10 mins prior to formalin challenge measured for 10 to 30 mins (reference value: 159 +/- 15 s)", "format": "functional"}, "[7]": {"tested_on": "Mus musculus", "experiment": "Antinociceptive effect in Kunming mouse assessed as inhibition of acetic acid-induced writhing response at 100 mg/kg, sc administered 30 mins prior to acetic acid challenge measured 5 mins post injection for 15 mins", "format": "functional"}, "[8]": {"tested_on": "Mus musculus", "experiment": "Antinociceptive effect in Kunming mouse assessed as inhibition of acetic acid-induced writhing response at 100 mg/kg, ip administered 30 mins prior to acetic acid challenge measured 5 mins post injection for 15 mins", "format": "functional"}, "[9]": {"tested_on": "Mus musculus", "experiment": "Antinociceptive activity in ICR mouse assessed as reduction in licking and biting time during first phase at 10 mg/kg, ip administered 10 mins prior to formalin challenge measured for 10 mins (reference value: 156 +/- 8 s)", "format": "functional"}, "[10]": {"tested_on": "Mus musculus", "experiment": "Antinociceptive activity in ICR mouse assessed as reduction in licking and biting time during first phase at 20 mg/kg, ip administered 10 mins prior to formalin challenge measured for 10 mins (reference value: 156 +/- 8 s)", "format": "functional"}, "[11]": {"tested_on": "Mus musculus", "experiment": "Antinociceptive activity in ICR mouse assessed as reduction in licking and biting time during second phase at 10 mg/kg, ip administered 10 mins prior to formalin challenge measured for 10 to 30 mins (reference value: 159 +/- 25 s)", "format": "functional"}, "[12]": {"tested_on": "Mus musculus", "experiment": "Antinociceptive activity in ICR mouse assessed as reduction in licking and biting time during second phase at 20 mg/kg, ip administered 10 mins prior to formalin challenge measured for 10 to 30 mins (reference value: 159 +/- 25 s)", "format": "functional"}, "[13]": {"tested_on": "Mus musculus", "experiment": "Antinociceptive activity in ip dosed ICR mouse assessed as reduction in licking and biting time during first phase administered 10 mins prior to formalin challenge measured for 10 mins relative to vehicle control", "format": "functional, organism-based"}, "[14]": {"tested_on": "Mus musculus", "experiment": "Antinociceptive activity in ip dosed ICR mouse assessed as reduction in licking and biting time during second phase administered 10 mins prior to formalin challenge measured for 10 to 30 mins relative to vehicle control", "format": "functional, organism-based"}, "[15]": {"tested_on": "Mus musculus", "experiment": "Antinociceptive effect in C57BL/6 mouse assessed as inhibition of spared nerve injury-induced neuropathic pain response at 10 to 20 mg/kg, ip measured after 5 to 7 days of recovery by Von Frey filament assay", "format": "functional, organism-based"}},
  "note": "The source made the active and inactive calls. No cut-off for these calls is given here.",
  "data": [
    {"smiles": "C=C1CN(C)C[C@H]2[C@H](C)[C@H](OC(=O)[C@H]3[C@H](c4ccc(O)c(OC)c4)[C@H](C(=O)O[C@@H]4C[C@H]5C(=C)CN(C)C[C@H]5[C@@H]4C)[C@H]3c3ccc(O)c(OC)c3)C[C@@H]12", "values": [
      {"measurement": "inhibition in vivo at 20 mg/kg", "setting": "[1]", "value": 77.8, "unit": "%"},
      {"measurement": "inhibition in vivo at 20 mg/kg", "setting": "[2]", "value": 89.4, "unit": "%"},
      {"measurement": "Time", "setting": "[3]", "value": 87, "unit": "s"},
      {"measurement": "inhibition", "setting": "[4]", "value": "Active"}
    ]},
    {"smiles": "NCC1(CC(=O)O)CCCCC1", "values": [
      {"measurement": "inhibition", "setting": "[5]", "value": "Active"}
    ]},
    {"smiles": "COc1cc([C@H]2[C@H](C(=O)OCC3CCN(C)CC3)[C@H](c3ccc(O)c(OC)c3)[C@H]2C(=O)OCC2CCN(C)CC2)ccc1O", "values": [
      {"measurement": "inhibition in vivo at 20 mg/kg", "setting": "[1]", "value": 75.7, "unit": "%"},
      {"measurement": "Time", "setting": "[6]", "value": 95, "unit": "s"},
      {"measurement": "inhibition", "setting": "[4]", "value": "Active"}
    ]},
    {"smiles": "CCCN1C[C@H]2[C@H](C)[C@H](OC(=O)[C@H]3[C@H](c4ccc(O)c(OC)c4)[C@H](C(=O)O[C@@H]4C[C@@H]5[C@@H](CN(CCC)C[C@@H]5C)[C@@H]4C)[C@H]3c3ccc(O)c(OC)c3)C[C@H]2[C@@H](C)C1", "values": [
      {"measurement": "inhibition in vivo at 20 mg/kg", "setting": "[1]", "value": 48.2, "unit": "%"}
    ]},
    {"smiles": "COc1cc([C@H]2[C@H](C(=O)OCCC3CCN(C)CC3)[C@H](c3ccc(O)c(OC)c3)[C@H]2C(=O)OCCC2CCN(C)CC2)ccc1O", "values": [
      {"measurement": "inhibition in vivo at 20 mg/kg", "setting": "[1]", "value": 22.4, "unit": "%"}
    ]},
    {"smiles": "COc1cc([C@H]2[C@H](C(=O)O[C@@H]3C[C@@H]4[C@@H](CN(C)C[C@H]4C)[C@@H]3C)[C@H](c3ccc(O)c(OC)c3)[C@H]2C(=O)O[C@@H]2C[C@@H]3[C@@H](CN(C)C[C@H]3C)[C@@H]2C)ccc1O", "values": [
      {"measurement": "inhibition in vivo at 20 mg/kg", "setting": "[1]", "value": 65.1, "unit": "%"}
    ]},
    {"smiles": "COc1cc([C@H]2[C@H](C(=O)OC3CCN(C)CC3)[C@H](c3ccc(O)c(OC)c3)[C@H]2C(=O)OC2CCN(C)CC2)ccc1O", "values": [
      {"measurement": "inhibition in vivo at 20 mg/kg", "setting": "[1]", "value": 41.2, "unit": "%"}
    ]},
    {"smiles": "C=CCN1C[C@H]2[C@H](C)[C@H](OC(=O)[C@H]3[C@H](c4ccc(O)c(OC)c4)[C@H](C(=O)O[C@@H]4C[C@@H]5[C@@H](CN(CC=C)C[C@@H]5C)[C@@H]4C)[C@H]3c3ccc(O)c(OC)c3)C[C@H]2[C@@H](C)C1", "values": [
      {"measurement": "inhibition in vivo at 20 mg/kg", "setting": "[1]", "value": 70.6, "unit": "%"}
    ]},
    {"smiles": "COc1cc([C@H]2[C@H](C(=O)O[C@@H]3C[C@@H]4[C@@H](CN(CC5CC5)C[C@@H]4C)[C@@H]3C)[C@H](c3ccc(O)c(OC)c3)[C@H]2C(=O)O[C@@H]2C[C@@H]3[C@@H](CN(CC4CC4)C[C@@H]3C)[C@@H]2C)ccc1O", "values": [
      {"measurement": "inhibition in vivo at 20 mg/kg", "setting": "[2]", "value": 88.1, "unit": "%"}
    ]},
    {"smiles": "CC(=O)Oc1ccccc1C(=O)O", "note": "[ASPIRIN DL-LYSINE]", "values": [
      {"measurement": "inhibition in vivo at 100 mg/kg", "setting": "[7]", "value": 81.9, "unit": "%"},
      {"measurement": "inhibition in vivo at 100 mg/kg", "setting": "[8]", "value": 85.4, "unit": "%"}
    ]},
    {"smiles": "CCCCN1C[C@H]2[C@H](C)[C@H](OC(=O)[C@H]3[C@H](c4ccc(O)c(OC)c4)[C@H](C(=O)O[C@@H]4C[C@@H]5[C@@H](CN(CCCC)C[C@@H]5C)[C@@H]4C)[C@H]3c3ccc(O)c(OC)c3)C[C@H]2[C@@H](C)C1", "values": [
      {"measurement": "inhibition in vivo at 20 mg/kg", "setting": "[1]", "value": 13.1, "unit": "%"}
    ]},
    {"smiles": "COc1cc([C@H]2[C@H](C(=O)O[C@@H]3C[C@@H]4[C@@H](CN(C)C[C@@H]4C)[C@@H]3C)[C@H](c3ccc(O)c(OC)c3)[C@H]2C(=O)O[C@@H]2C[C@@H]3[C@@H](CN(C)C[C@@H]3C)[C@@H]2C)ccc1O", "note": "[INCARVILLATEINE]", "values": [
      {"measurement": "inhibition in vivo at 20 mg/kg", "setting": "[1]", "value": 69.2, "unit": "%"},
      {"measurement": "inhibition in vivo at 20 mg/kg", "setting": "[2]", "value": 78.5, "unit": "%"},
      {"measurement": "Time", "setting": "[9]", "value": 101, "unit": "s"},
      {"measurement": "Time", "setting": "[10]", "value": 51, "unit": "s"},
      {"measurement": "Time", "setting": "[11]", "value": 67, "unit": "s"},
      {"measurement": "Time", "setting": "[12]", "value": 1, "unit": "s"},
      {"measurement": "Activity", "setting": "[13]", "value": "Dose-dependent effect"},
      {"measurement": "Activity", "setting": "[14]", "value": "Dose-dependent effect"},
      {"measurement": "inhibition", "setting": "[15]", "value": "Active"}
    ]}
  ]
}
